From patent publication US20230348447A1, “OXAZOLIDINONE COMPOUNDS, LIPOSOME COMPOSITIONS COMPRISING OXAZOLIDINONE COMPOUNDS AND METHOD OF USE THEREOF” (priority 2020, published 2023)
≈ marks a conversion by molar mass, not a printed value.

Columns and labels:
[1] = tested on: M. tuberculosis MDR strain M70; experiment: microbe, parasite or virus in culture; format: cell-based, Mycobacterium tuberculosis; conditions: for MIC: Mycobacterium tuberculosis, read-out: MIC, µg/mL in M.tuberculosis strain M70; for MIC, µg/mL in M.tuberculosis strain M70: MABA assay
[2] = tested on: M. tuberculosis MDR strain M28; experiment: microbe, parasite or virus in culture; format: cell-based, Mycobacterium tuberculosis; conditions: for MIC: Mycobacterium tuberculosis, read-out: MIC, µg/mL in M.tuberculosis strain M28; for MIC, µg/mL in M.tuberculosis strain M28: MABA assay
[3] = tested on: M. tuberculosis MDR strain M14; experiment: microbe, parasite or virus in culture; format: cell-based, Mycobacterium tuberculosis; conditions: for MIC: Mycobacterium tuberculosis, read-out: MIC, µg/mL in M.tuberculosis strain M14; for MIC, µg/mL in M.tuberculosis strain M14: MABA assay
[4] = tested on: M. tuberculosis MDR strain TN5904; experiment: microbe, parasite or virus in culture; format: cell-based, Mycobacterium tuberculosis; conditions: for MIC: Mycobacterium tuberculosis, read-out: MIC, µg/mL in M.tuberculosis strain TN5904; for MIC, µg/mL in M.tuberculosis strain TN5904: MABA assay
[5] = tested on: M. tuberculosis MDR strain M94; experiment: microbe, parasite or virus in culture; format: cell-based, Mycobacterium tuberculosis; conditions: for MIC: Mycobacterium tuberculosis, read-out: MIC, µg/mL in M.tuberculosis strain M94; for MIC, µg/mL in M.tuberculosis strain M94: MABA assay
[6] = tested on: M. tuberculosis H37Rv; experiment: microbe, parasite or virus in culture; format: cell-based, Mycobacterium tuberculosis; conditions: for MIC: Mycobacterium tuberculosis, H37RV, read-out: MIC, µg/mL in M.tuberculosis strain H37Rv; for MIC, µg/mL in M.tuberculosis strain H37Rv: MABA assay, drug-susceptible strain H37Rv
[7] = tested on: M. tuberculosis MDR strain TN5904; set-up: key: R- resistant; S -susceptible; conditions: cited from earlier work
[8] = tested on: M. tuberculosis MDR strain M94; set-up: key: R- resistant; S -susceptible; conditions: cited from earlier work
[9] = tested on: M. tuberculosis MDR strain M28; set-up: key: R- resistant; S -susceptible; conditions: cited from earlier work
[10] = tested on: M. tuberculosis MDR strain M14; set-up: key: R- resistant; S -susceptible; conditions: cited from earlier work
[11] = tested on: M. tuberculosis MDR strain M70; set-up: key: R- resistant; S -susceptible; conditions: cited from earlier work

Row | SMILES | MIC [1] | MIC [2] | MIC [3] | MIC [4] | MIC [5] | MIC [6] | MIC, µg/mL in M.tuberculosis strain M70 [1] | MIC, µg/mL in M.tuberculosis strain M28 [2] | MIC, µg/mL in M.tuberculosis strain M14 [3] | Drug resistance feature of the strain [7] | Drug resistance feature of the strain [8] | MIC, µg/mL in M.tuberculosis strain TN5904 [4] | Drug resistance feature of the strain [9] | MIC, µg/mL in M.tuberculosis strain H37Rv [6] | Drug resistance feature of the strain [10] | Drug resistance feature of the strain [11] | MIC, µg/mL in M.tuberculosis strain M94 [5]
1 | CC(=O)NC[C@H]1CN(c2ccc(-c3ccc(-c4nnn(CCN(C)C)n4)nc3)c(F)c2)C(=O)O1 [AKG-38] | ≤ 0.015 µg/mL | 0.03 µg/mL (≈ 0.064 µM) | 0.03 µg/mL (≈ 0.064 µM) | 0.03 µg/mL (≈ 0.064 µM) | 0.03 µg/mL (≈ 0.064 µM) | 0.03 µg/mL (≈ 0.064 µM) |  |  |  |  |  |  |  |  |  |  | 
2 | CO[C@H]1/C=C/O[C@@]2(C)Oc3c(C)c(O)c4c(O)c(c(/C=N/N5CCN(C)CC5)c(O)c4c3C2=O)NC(=O)/C(C)=C\C=C\[C@H](C)[C@H](O)[C@@H](C)[C@@H](O)[C@@H](C)[C@H](OC(C)=O)[C@@H]1C [RIF] |  |  |  |  |  |  | >8 µg/mL | >8 µg/mL | 0.06 µg/mL (≈ 0.0729 µM) | R | S | >8 µg/mL | R | 0.06 µg/mL (≈ 0.0729 µM) | S | R | 
3 | Cl.Cl.NCCn1nnc(-c2ccc(-c3ccc(N4C[C@H](CN)OC4=O)cc3F)cn2)n1 [AKG-29] | ≤ 0.03 µg/mL | 0.125 µg/mL | 0.06 µg/mL | 0.06 µg/mL | 0.125 µg/mL | 0.25 µg/mL |  |  |  |  |  |  |  |  |  |  | 
4 | CN[C@@H]1[C@H](O[C@H]2[C@H](O[C@H]3[C@H](O)[C@@H](O)[C@H](N=C(N)N)[C@@H](O)[C@@H]3N=C(N)N)O[C@@H](C)[C@]2(O)C=O)O[C@@H](CO)[C@H](O)[C@H]1O [STR] |  |  |  |  |  |  | 2 µg/mL (≈ 3.44 µM) | 0.125 µg/mL (≈ 0.215 µM) | >8 µg/mL | R | R | 1 µg/mL (≈ 1.72 µM) | S | 0.5 µg/mL (≈ 0.86 µM) | R | R | >8 µg/mL
5 | NC(=O)c1cnccn1 [PZA] |  |  |  |  |  |  |  |  |  | R | S |  | R |  | R | R | 
6 | CCN(CC)CCn1nnc(-c2ccc(-c3ccc(N4C[C@H](CNC(C)=O)OC4=O)cc3F)cn2)n1 [AKG-39] | 0.125 µg/mL (≈ 0.252 µM) | 0.5 µg/mL (≈ 1.01 µM) | 0.5 µg/mL (≈ 1.01 µM) | 0.25 µg/mL (≈ 0.503 µM) | 1 µg/mL (≈ 2.01 µM) |  |  |  |  |  |  |  |  |  |  |  | 
7 | COc1c(N2C[C@@H]3CCCN[C@@H]3C2)c(F)cc2c(=O)c(C(=O)O)cn(C3CC3)c12 [MOX] | 1 µg/mL (≈ 2.49 µM) | 2 µg/mL (≈ 4.98 µM) | 0.125 µg/mL (≈ 0.311 µM) | 0.125 µg/mL (≈ 0.311 µM) | 0.125 µg/mL (≈ 0.311 µM) | 0.125 µg/mL (≈ 0.311 µM) |  |  |  |  |  |  |  |  |  |  | 
8 | CC(=O)NC[C@H]1CN(c2ccc(N3CCOCC3)c(F)c2)C(=O)O1 [Linezolid] | 0.5 µg/mL (≈ 1.48 µM) | 0.5 µg/mL (≈ 1.48 µM) | 0.5 µg/mL (≈ 1.48 µM) | 1 µg/mL (≈ 2.96 µM) | 0.5 µg/mL (≈ 1.48 µM) | 2 µg/mL (≈ 5.93 µM) |  |  |  |  |  |  |  |  |  |  | 
9 | CN(C)CCn1nnc(-c2ccc(-c3ccc(N4C[C@H](CN)OC4=O)cc3F)cn2)n1.Cl [AKG-28] | ≤ 0.004 µg/mL | 0.015 µg/mL | 0.015 µg/mL | 0.015 µg/mL | 0.015 µg/mL | 0.03 µg/mL |  |  |  |  |  |  |  |  |  |  | 
10 | NNC(=O)c1ccncc1 [INH] |  |  |  |  |  |  | >2 µg/mL | >2 µg/mL | >2 µg/mL | R | R | 2 µg/mL (≈ 14.6 µM) | R | 0.06 µg/mL (≈ 0.438 µM) | R | R | >2 µg/mL
11 | Cl.Cn1nnc(-c2ccc(-c3ccc(N4C[C@H](CN)OC4=O)cc3F)cn2)n1 [AKG-3] | ≤ 0.015 µg/mL | 0.06 µg/mL | 0.03 µg/mL | 0.06 µg/mL | 0.06 µg/mL | 0.125 µg/mL |  |  |  |  |  |  |  |  |  |  | 
12 | CN(C)CCn1nnc(-c2ccc(-c3ccc(N4C[C@H](CO)OC4=O)cc3F)cn2)n1 [AKG-16] | 0.125 µg/mL (≈ 0.292 µM) | 0.25 µg/mL (≈ 0.585 µM) | 0.06 µg/mL (≈ 0.14 µM) | 0.06 µg/mL (≈ 0.14 µM) | 0.06 µg/mL (≈ 0.14 µM) |  |  |  |  |  |  |  |  |  |  |  | 
13 | CC[C@@H](CO)NCCN[C@@H](CC)CO [EMB] |  |  |  |  |  |  |  |  |  | S | S |  | R |  | S | S | 
